Results published in ChEMBL document CHEMBL1681651, “A broad spectrum anticancer nucleoside with selective toxicity against human colon cells in vitro” (2011).

How the values were obtained:
Format in all cases: functional
[1] = tested on: SF-295; test: Growth inhibition of human SF295 cells assessed as cell growth at 1 mM after 48 hrs by SRB assay; details: SF-295, 48 h, read-out: Activity
[2] = tested on: A549; test: Growth inhibition of human A549 cells assessed as cell growth at 0.1 uM after 48 hrs by SRB assay; details: A549, 48 h, read-out: Activity
[3] = tested on: NCI-H23; test: Growth inhibition of human NCI-H23 cells assessed as cell growth at 1 uM after 48 hrs by SRB assay; details: NCI-H23, 48 h, read-out: Activity
[4] = tested on: HCT-15; test: Growth inhibition of human HCT15 cells assessed as cell growth at 100 uM after 48 hrs by SRB assay; details: HCT-15, 48 h, read-out: Activity
[5] = tested on: UACC-257; test: Growth inhibition of human UACC257 cells assessed as cell growth at 1 mM after 48 hrs by SRB assay; details: UACC-257, 48 h, read-out: Activity
[6] = tested on: UACC-257; test: Growth inhibition of human UACC257 cells after 48 hrs by […] growth inhibition assay; details: UACC-257, 48 h
[7] = tested on: HCT-15; test: Growth inhibition of human HCT15 cells after 48 hrs by […] growth inhibition assay; details: HCT-15, 48 h
[8] = tested on: SNB-75; test: Growth inhibition of human SNB75 cells assessed as cell growth at 100 uM after 48 hrs by SRB assay; details: SNB-75, 48 h, read-out: Activity
[9] = tested on: CCRF-CEM; test: Growth inhibition of human CCRF-CEM cells after 48 hrs by […] growth inhibition assay
[10] = tested on: OVCAR-3; test: Growth inhibition of human OVCAR3 cells assessed as cell growth at 0.1 uM after 48 hrs by SRB assay; details: OVCAR-3, 48 h, read-out: Activity
[11] = tested on: MDA-MB-231; test: Growth inhibition of human MDA-MB-231 cells assessed as cell growth at 1 mM after 48 hrs by SRB assay; details: MDA-MB-231, 48 h, read-out: Activity
[12] = tested on: HCC 2998; test: Growth inhibition of human HCC2998 cells assessed as cell growth at 100 uM after 48 hrs by SRB assay; details: HCC 2998, 48 h, read-out: Activity
[13] = tested on: M14; test: Growth inhibition of human M14 cells assessed as cell growth at 100 uM after 48 hrs by SRB assay; details: M14, 48 h, read-out: Activity
[14] = tested on: HCT-116; test: Growth inhibition of human HCT116 cells assessed as cell growth at 1 uM after 48 hrs by SRB assay; details: HCT-116, 48 h, read-out: Activity
[15] = tested on: IGROV-1; test: Growth inhibition of human IGROV1 cells assessed as cell growth at 1 mM after 48 hrs by SRB assay; details: IGROV-1, 48 h, read-out: Activity
[16] = tested on: SK-MEL-2; test: Growth inhibition of human SK-MEL-2 cells assessed as cell growth at 0.1 uM after 48 hrs by SRB assay; details: SK-MEL-2, 48 h, read-out: Activity
[17] = tested on: Malme-3M; test: Growth inhibition of human MALME-3M cells after 48 hrs by […] growth inhibition assay
[18] = tested on: T47D; test: Growth inhibition of human T47D cells assessed as cell growth at 0.1 uM after 48 hrs by SRB assay; details: read-out: Activity
[19] = tested on: NCI/ADR-RES; test: Growth inhibition of human NCI/ADR-RES cells assessed as cell growth at 10 uM after 48 hrs by SRB assay; details: read-out: Activity
[20] = tested on: SF-539; test: Growth inhibition of human SF539 cells assessed as cell growth at 0.1 uM after 48 hrs by SRB assay; details: SF-539, 48 h, read-out: Activity
[21] = tested on: A498; test: Growth inhibition of human A498 cells after 48 hrs by […] growth inhibition assay; details: A498, 48 h
[22] = tested on: HCC 2998; test: Growth inhibition of human HCC2998 cells assessed as cell growth at 10 uM after 48 hrs by SRB assay; details: HCC 2998, 48 h, read-out: Activity
[23] = tested on: OVCAR-8; test: Growth inhibition of human OVCAR8 cells assessed as cell growth at 1 mM after 48 hrs by SRB assay; details: OVCAR-8, 48 h, read-out: Activity
[24] = Growth inhibition of human […] cells assessed as cell growth at 0.1 uM after 48 hrs by SRB assay; details: read-out: Activity
[25] = tested on: HOP-92; test: Growth inhibition of human HOP92 cells assessed as cell growth at 0.1 uM after 48 hrs by SRB assay; details: HOP-92, 48 h, read-out: Activity
[26] = tested on: UACC-257; test: Growth inhibition of human UACC257 cells assessed as cell growth at 1 uM after 48 hrs by SRB assay; details: UACC-257, 48 h, read-out: Activity
[27] = tested on: EKVX; test: Growth inhibition of human EKVX cells after 48 hrs by […] growth inhibition assay
[28] = tested on: Malme-3M; test: Growth inhibition of human MALME-3M cells assessed as cell growth at 1 mM after 48 hrs by SRB assay; details: read-out: Activity
[29] = tested on: SF-295; test: Growth inhibition of human SF295 cells after 48 hrs by […] growth inhibition assay; details: SF-295, 48 h
[30] = tested on: COLO 205; test: Growth inhibition of human COLO205 cells assessed as cell growth at 0.1 uM after 48 hrs by SRB assay; details: COLO 205, 48 h, read-out: Activity
[31] = tested on: SK-OV-3; test: Growth inhibition of human SKOV3 cells assessed as cell growth at 0.1 uM after 48 hrs by SRB assay; details: SK-OV-3, 48 h, read-out: Activity
[32] = tested on: RXF 393; test: Growth inhibition of human RXF393 cells assessed as cell growth at 1 uM after 48 hrs by SRB assay; details: RXF 393, 48 h, read-out: Activity
[33] = read-out: LC50 (the source's name)
[34] = read-out: pLC50 (the source's name) (converted)

## CNC(=O)NC[C@H]1O[C@@H](n2cnc3c(NC(=O)Nc4ccccc4)ncnc32)[C@H](O[Si](C)(C)C(C)(C)C)[C@@H]1CC(=O)N(C)OC
[1]
  growth at 1000 µM: 20%
[2]
  growth at 0.1 µM: 97%
[3]
  growth at 1 µM: 103%
[4]
  growth at 100 µM: 40%
[5]
  growth at 1000 µM: 22%
[6]; read-out: GI50
  GI50: 22.6 µM
[6]; [33]
  CC50: > 100 µM
[6]; read-out: TGI
  TGI: > 100 µM
[6]; read-out: pGI50 (converted)
  GI50: 22.4 µM
[6]; [34]
  CC50: > 100 µM
[6]; read-out: pTGI (converted)
  TGI: > 100 µM
[7]; read-out: GI50
  GI50: 6.47 µM
[7]; [33]
  CC50: > 100 µM
[7]; read-out: TGI
  TGI: > 100 µM
[7]; read-out: pGI50 (converted)
  GI50: 6.46 µM
[7]; [34]
  CC50: > 100 µM
[7]; read-out: pTGI
  TGI: > 100 µM
[8]
  growth at 100 µM: 54%
[9]; read-out: GI50
  GI50: 6.37 µM
[9]; read-out: LC50
  LC50 (lethal concentration, 50% net cell kill): > 100 µM
[9]; read-out: TGI
  TGI: > 100 µM
[9]; read-out: pGI50 (converted)
  GI50: 6.31 µM
[9]; read-out: pLC50 (converted)
  LC50 (lethal concentration, 50% net cell kill): > 100 µM
[9]; read-out: pTGI (converted)
  TGI: > 100 µM
[10]
  growth at 0.1 µM: 95%
[11]
  growth at 1000 µM: 5%
[12]
  growth at 100 µM: 66%
[13]
  growth at 100 µM: 57%
[14]
  growth at 1 µM: 90%
[15]
  growth at 1000 µM: -6%
[16]
  growth at 0.1 µM: 85%
[17]; read-out: GI50
  GI50: 11.4 µM
[17]; read-out: LC50
  LC50 (concentration killing 50% of cells): > 100 µM
[17]; read-out: TGI
  TGI: > 100 µM
[17]; read-out: pGI50 (converted)
  GI50: 11.5 µM
[17]; read-out: pLC50 (converted)
  LC50 (concentration killing 50% of cells): > 100 µM
[17]; read-out: pTGI (converted)
  TGI: > 100 µM
[18]
  growth at 0.1 µM: 90%
[19]
  growth at 10 µM: 105%
[20]
  growth at 0.1 µM: 96%
[21]; read-out: GI50
  GI50: 3.87 µM
[21]; [33]
  CC50: > 100 µM
[21]; read-out: TGI
  TGI: 40.3 µM
[21]; read-out: pGI50 (converted)
  GI50: 3.89 µM
[21]; [34]
  CC50: > 100 µM
[21]; read-out: pTGI (converted)
  TGI: 40.7 µM
[22]
  growth at 10 µM: 100%
[23]
  growth at 1000 µM: 22%
[24]
  growth at 0.1 µM: 80%
[25]
  growth at 0.1 µM: 80%
[26]
  growth at 1 µM: 103%
[27]; read-out: GI50
  GI50: 26.4 µM
[27]; [33]
  CC50: > 100 µM
[27]; read-out: TGI
  TGI: > 100 µM
[27]; read-out: pGI50 (converted)
  GI50: 26.3 µM
[27]; [34]
  CC50: > 100 µM
[27]; read-out: pTGI (converted)
  TGI: > 100 µM
[28]
  growth at 1000 µM: 23%
[29]; read-out: GI50
  GI50: 9.09 µM
[29]; read-out: LC50
  LC50: 16.4 µM
[29]; read-out: TGI
  TGI: > 100 µM
[29]; read-out: pGI50 (converted)
  GI50: 9.12 µM
[29]; read-out: pLC50 (converted)
  LC50: > 100 µM
[29]; read-out: pTGI (converted)
  TGI: > 100 µM
[30]
  growth at 0.1 µM: 97%
[31]
  growth at 0.1 µM: 96%
[32]
  growth at 1 µM: 100%
